# Where “and” joins values, the source holds several entries; their conditions need not be identical. Equal values may be shown once. Toxic doses and inconclusive results are not listed.
# System: L1210 leukemia ip in BDF1 mice, survival T/C
# Assay: NCI In Vivo Anticancer Drug Screen. Data for tumor model L1210 Leukemia (intraperitoneal) in B6D2F1 (BDF1) mice
# Details: endpoint: mean survival time, higher = longer survival
# Method in brief: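 Tumor cells were implanted, animals were treated, and survival was followed. The result divides the treated measurement by the vehicle-control measurement.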
# [1] = dose: 100.0 mg/kg/injection, schedule: Q04DX003 (ip), vehicle: saline
# [2] = dose: 200.0 mg/kg/injection, schedule: Q04DX003 (ip), vehicle: saline
# [3] = dose: 400.0 mg/kg/injection, schedule: Q04DX003 (ip), vehicle: saline
# [4] = dose: 100.0 mg/kg/injection, schedule: Q01DX001 (ip), vehicle: carboxymethylcellulose (CMC)
# [5] = dose: 200.0 mg/kg/injection, schedule: Q01DX001 (ip), vehicle: carboxymethylcellulose (CMC)
# [6] = dose: 400.0 mg/kg/injection, schedule: Q01DX001 (ip), vehicle: carboxymethylcellulose (CMC)
# [7] = dose: 12.5 mg/kg/injection, schedule: Q01DX009 (ip), vehicle: Klucel (hydroxypropylcellulose) (HPC)
# [8] = dose: 50.0 mg/kg/injection, schedule: Q04DX003 (ip), vehicle: Klucel (hydroxypropylcellulose) (HPC)
# [9] = dose: 100.0 mg/kg/injection, schedule: Q04DX003 (ip), vehicle: Klucel (hydroxypropylcellulose) (HPC)
# [10] = dose: 200.0 mg/kg/injection, schedule: Q04DX003 (ip), vehicle: Klucel (hydroxypropylcellulose) (HPC)
# [11] = dose: 400.0 mg/kg/injection, schedule: Q04DX003 (ip), vehicle: Klucel (hydroxypropylcellulose) (HPC)
# [12] = dose: 100.0 mg/kg/injection, schedule: Q01DX009 (ip), vehicle: saline with Tween-80
# [13] = dose: 200.0 mg/kg/injection, schedule: Q01DX009 (ip), vehicle: saline with Tween-80
# [14] = dose: 400.0 mg/kg/injection, schedule: Q01DX009 (ip), vehicle: saline with Tween-80
# [15] = dose: 100.0 mg/kg/injection, schedule: Q01DX009 (ip), vehicle: Klucel (hydroxypropylcellulose) (HPC)
# [16] = dose: 200.0 mg/kg/injection, schedule: Q01DX009 (ip), vehicle: Klucel (hydroxypropylcellulose) (HPC)
# [17] = dose: 400.0 mg/kg/injection, schedule: Q01DX009 (ip), vehicle: Klucel (hydroxypropylcellulose) (HPC)
smiles,measurement,setting,value
CCOCCOCCOC(C)Oc1cccc(C(=O)OCC)c1 (configuration not stated),T/C,"dose: 100.0 mg/kg/injection, schedule: Q04DX002 (ip), vehicle: saline with Tween-80",103 % of control
same,T/C,"dose: 200.0 mg/kg/injection, schedule: Q04DX002 (ip), vehicle: saline with Tween-80",103 % of control
same,T/C,"dose: 400.0 mg/kg/injection, schedule: Q04DX002 (ip), vehicle: saline with Tween-80",100 % of control
CCOC(=O)CCN(C(=O)OCC)C(COCc1ccccc1)C(=O)OCC (configuration not stated),T/C,"dose: 100.0 mg/kg/injection, schedule: Q01DX001 (ip), vehicle: saline",104 % of control
same,T/C,"dose: 200.0 mg/kg/injection, schedule: Q01DX001 (ip), vehicle: saline",104 % of control
same,T/C,"dose: 400.0 mg/kg/injection, schedule: Q01DX001 (ip), vehicle: saline",98 % of control
CCCCCCCCNC(C(=O)c1ccc(Cl)cc1)c1ccc(Cl)cc1 (configuration not stated),T/C,"dose: 50.0 mg/kg/injection, schedule: Q01DX009 (ip), vehicle: saline",92 % of control
same,T/C,"dose: 100.0 mg/kg/injection, schedule: Q01DX009 (ip), vehicle: saline",91 % of control
same,T/C,[1],98 % of control
same,T/C,"dose: 200.0 mg/kg/injection, schedule: Q01DX009 (ip), vehicle: saline",97 % of control
same,T/C,[2],102 % of control
same,T/C,[3],90 % of control
Cc1scc[n+]1C,T/C,"dose: 75.0 mg/kg/injection, schedule: Q01DX001 (ip), vehicle: saline",104 % of control
same,T/C,"dose: 150.0 mg/kg/injection, schedule: Q01DX001 (ip), vehicle: saline",102 % of control
same,T/C,"dose: 300.0 mg/kg/injection, schedule: Q01DX001 (ip), vehicle: saline",107 % of control
Cc1ccc(S(=O)(=O)OC2CCC(OS(=O)(=O)c3ccc(C)cc3)C3CCCCC23)cc1 (configuration not stated),T/C,[4],88 % of control
same,T/C,[5],90 % of control
same,T/C,[6],88 % of control
N=C(CNC1CC2CCC1C2)SS(=O)(=O)O (configuration not stated),T/C,"dose: 3.13 mg/kg/injection, schedule: Q01DX009 (ip), vehicle: Klucel (hydroxypropylcellulose) (HPC)",97 % of control
same,T/C,"dose: 3.13 mg/kg/injection, schedule: Q04DX002 (ip), vehicle: Klucel (hydroxypropylcellulose) (HPC)",98 % of control
same,T/C,"dose: 6.25 mg/kg/injection, schedule: Q01DX009 (ip), vehicle: Klucel (hydroxypropylcellulose) (HPC)",94 % of control
same,T/C,"dose: 6.25 mg/kg/injection, schedule: Q04DX002 (ip), vehicle: Klucel (hydroxypropylcellulose) (HPC)",95 % of control
same,T/C,[7],105 % of control
same,T/C,"dose: 12.5 mg/kg/injection, schedule: Q04DX002 (ip), vehicle: Klucel (hydroxypropylcellulose) (HPC)",98 % of control and 103 % of control
O=S(=O)(O)Sc1ncnc2nc[nH]c12,T/C,"dose: 125.0 mg/kg/injection, schedule: Q01DX009 (ip), vehicle: water",162 % of control
same,T/C,"dose: 250.0 mg/kg/injection, schedule: Q01DX009 (ip), vehicle: water",159 % of control
same,T/C,"dose: 250.0 mg/kg/injection, schedule: Q04DX003 (ip), vehicle: water",153 % of control
O=C(O)CCC1CC1C(=O)c1ccccc1 (configuration not stated),T/C,[8],102 % of control
same,T/C,[9],100 % of control
same,T/C,[10],103 % of control
same,T/C,[11],103 % of control
CC(c1ccccc1)[As](C)(=O)O (configuration not stated),T/C,"dose: 25.0 mg/kg/injection, schedule: Q04DX003 (ip), vehicle: saline",102 % of control
same,T/C,"dose: 50.0 mg/kg/injection, schedule: Q04DX003 (ip), vehicle: saline",100 % of control
same,T/C,[1],122 % of control
CCC(=O)Nc1cccc(OC(=O)NCCCl)c1,T/C,[12],96 % of control
same,T/C,[13],87 % of control
same,T/C,[14],86 % of control
CC1[N-]CCC[N-]CCC[N-]C(C)C2CCCC1[N-]2.[Ni+2].[O-][Cl+3]([O-])([O-])O (configuration not stated),T/C,"dose: 25.0 mg/kg/injection, schedule: Q04DX002 (ip), vehicle: saline",92 % of control
same,T/C,"dose: 50.0 mg/kg/injection, schedule: Q04DX002 (ip), vehicle: saline",89 % of control
same,T/C,"dose: 100.0 mg/kg/injection, schedule: Q04DX002 (ip), vehicle: saline",92 % of control
CC1(C)OC2C(=O)C3COC(O3)C2O1 (configuration not stated),T/C,[4],106 % of control
same,T/C,[5],106 % of control
same,T/C,[6],103 % of control
COc1ccc(C23OC2Oc2cc(OC4CCCCO4)ccc2C3=O)cc1 (configuration not stated),T/C,"dose: 50.0 mg/kg/injection, schedule: Q01DX001 (sc), vehicle: steriod suspending solution",103 % of control
same,T/C,"dose: 100.0 mg/kg/injection, schedule: Q01DX001 (sc), vehicle: steriod suspending solution",108 % of control
same,T/C,"dose: 200.0 mg/kg/injection, schedule: Q01DX001 (sc), vehicle: steriod suspending solution",106 % of control
same,T/C,"dose: 400.0 mg/kg/injection, schedule: Q01DX001 (sc), vehicle: steriod suspending solution",103 % of control
CC(C)([CH2][Sn]([CH2]C(C)(C)c1ccccc1)([CH2]C(C)(C)c1ccccc1)[CH2]C(C)(C)c1ccccc1)c1ccccc1,T/C,"dose: 5.0 mg/kg/injection, schedule: Q01DX009 (sc), vehicle: olive oil, sesame oil, peanut oil",102 % of control
same,T/C,"dose: 5.0 mg/kg/injection, schedule: Q04DX003 (sc), vehicle: olive oil, sesame oil, peanut oil",92 % of control
same,T/C,"dose: 10.0 mg/kg/injection, schedule: Q01DX009 (sc), vehicle: olive oil, sesame oil, peanut oil",107 % of control
same,T/C,"dose: 10.0 mg/kg/injection, schedule: Q04DX003 (sc), vehicle: olive oil, sesame oil, peanut oil",92 % of control
same,T/C,"dose: 20.0 mg/kg/injection, schedule: Q01DX009 (sc), vehicle: olive oil, sesame oil, peanut oil",102 % of control
same,T/C,"dose: 20.0 mg/kg/injection, schedule: Q04DX003 (sc), vehicle: olive oil, sesame oil, peanut oil",92 % of control
Cc1cc(=O)oc2cc(OC(=O)Nc3ccc(Cl)cc3C(F)(F)F)ccc12,T/C,[12],97 % of control
same,T/C,[13],97 % of control
same,T/C,[14],92 % of control
COc1cc2c(c3oc(=O)ccc13)C(=O)CC(C)(C)O2,T/C,[15],95 % of control
same,T/C,[1],96 % of control
same,T/C,[16],91 % of control
same,T/C,[2],102 % of control
same,T/C,[17],95 % of control
same,T/C,[3],98 % of control
CN1C(=O)CN=C(c2ccccc2)c2cc(Cl)ccc21,T/C,[7],97 % of control
same,T/C,"dose: 25.0 mg/kg/injection, schedule: Q01DX009 (ip), vehicle: Klucel (hydroxypropylcellulose) (HPC)",95 % of control
same,T/C,"dose: 25.0 mg/kg/injection, schedule: Q04DX003 (ip), vehicle: Klucel (hydroxypropylcellulose) (HPC)",93 % of control
same,T/C,"dose: 50.0 mg/kg/injection, schedule: Q01DX009 (ip), vehicle: Klucel (hydroxypropylcellulose) (HPC)",100 % of control
same,T/C,[8],93 % of control
same,T/C,[15],100 % of control and 103 % of control
same,T/C,[9],110 % of control and 93 % of control
same,T/C,[16],100 % of control and 97 % of control
same,T/C,[10],102 % of control and 110 % of control
same,T/C,[17],100 % of control
same,T/C,[11],88 % of control
O=S(=O)(Oc1ccc(Cl)cc1Cl)c1ccc(Cl)cc1,T/C,"dose: 75.0 mg/kg/injection, schedule: Q04DX003 (ip), vehicle: Klucel (hydroxypropylcellulose) (HPC)",93 % of control
same,T/C,"dose: 150.0 mg/kg/injection, schedule: Q04DX003 (ip), vehicle: Klucel (hydroxypropylcellulose) (HPC)",101 % of control
same,T/C,"dose: 300.0 mg/kg/injection, schedule: Q04DX003 (ip), vehicle: Klucel (hydroxypropylcellulose) (HPC)",90 % of control
O=CC(Br)C(Br)c1ccccc1 (configuration not stated),T/C,"dose: 100.0 mg/kg/injection, schedule: Q04DX003 (ip), vehicle: saline with Tween-80",98 % of control
S=C(SSSSC(=S)N1CCCCC1)N1CCCCC1,T/C,[8],97 % of control
same,T/C,[9],101 % of control
same,T/C,[10],92 % of control
same,T/C,[11],92 % of control
Cc1cccc(NC(=O)C2CCC(C)(C(=O)O)C2(C)C)c1 (configuration not stated),T/C,"dose: 50.0 mg/kg/injection, schedule: Q01DX009 (ip), vehicle: saline with Tween-80",101 % of control
same,T/C,[12],101 % of control
same,T/C,[13],96 % of control
CC(=O)OC1CCC2(C)C(=CCC3C2CCC2(C)C3CC3C(c4ccccc4)=NN(c4ccccc4)C32C(=O)c2ccccc2)C1 (configuration not stated),T/C,"dose: 25.0 mg/kg/injection, schedule: Q04DX002 (ip), vehicle: Klucel (hydroxypropylcellulose) (HPC)",104 % of control
same,T/C,"dose: 50.0 mg/kg/injection, schedule: Q04DX002 (ip), vehicle: Klucel (hydroxypropylcellulose) (HPC)",93 % of control
same,T/C,"dose: 100.0 mg/kg/injection, schedule: Q04DX002 (ip), vehicle: Klucel (hydroxypropylcellulose) (HPC)",111 % of control
